In patent US20030050233A1, “Peptide combination for the treatment of cancer” (DABUR ONCOLOGY PLC, priority 2001, published 2003):
Where a SMILES comes first, the peptide text is derived from it. [ ]: non-standard residue; d: D form. The star is where a group is joined. Ac5c = NC1(C(=O)O)CCCC1; Aib = CC(C)(N)C(=O)O; Butyryl = CCCC(=O)*

Tests used:
Assay type in all cases: cell-based
[1] = system: cAMP in breast cancer cells (MF7); test: cAMP levels by enzyme linked sandwich immunosorbent assay; conditions: 30 minutes, final peptide concentration 10^-9 M, Forskolin 1 uM
Method: Enzyme linked sandwich immunosorbent assay was carried out on breast cancer cells (MF7) to study the modulation in levels of cAMP upon treatment with the peptides and their combinations. The cells were cultured in sterile 6 well plates at a density of 0.5×10^6/well in DMEM supplemented with 10% FCS, and allowed to adhere overnight. The medium was changed to DMEM and the cells were treated with appropriate concentrations of the peptide and its combinations, as shown in Table-IV, for 30 minutes, such that in each case the final peptide concentration was 10^−9M.
The cells were coincubated with Forskolin at a concentration of 1 uM. The cells were scraped using a cell scraper and pelleted. The cell pellet was suspended in appropriate resuspension buffer (50 mM Tris, containing EDTA, 0.2 mM phenyl methyl sulfonyl fluoride (PMSF), 1 ug/ml pepstatin and 0.5 ug/ml leupeptin adjusted to pH 7.4). The cell extracts were transferred to microcentrifuge tubes and centrifuged for 5 minutes at 10000×g. cAMP standards ranging in concentrations from 200 units/ml to 0 units/ml were prepared immediately prior to the start of the assay. Fluorescein isothiocyanate (FITC) conjugated monoclonal antibody directed to cAMP was added to microtitre wells precoated with primary monoclonal antibody against cAMP. 50 ul of sample lysates, and cAMP standards were added in duplicates in the microtitre wells containing both the monoclonals to cAMP. The wells were incubated at room temperature for 2 hours. The microtitre wells were washed thrice with appropriate wash buffer (PBS 50 mM, with Tween 0.5%) and the appropriate dilution of anti FITC horse radish peroxidase conjugate was added and incubated for 30 minutes. The microtitre wells were washed thrice with the wash buffer and subsequently with distilled water. Tetra-methylbenzidine was added to each well and incubated in dark for 30 minutes at room temperature. The absorbance was measured in each well at dual wavelength of 450/595 nm within 30 minutes of the addition of stop solution and the amount of cAMP present in the cell samples calculated.

[2] = system: Caspase-3 in PA-1 (Ovary) cells; test: Caspase-3 induction, colorimetric DEVD-pNA, PA-1; conditions: 6 hours, each peptide 10^-8 M
Method: PA-1 (Ovary) cells were cultured in 25 cm^2 tissue culture flasks at 37° C. in a humidified incubator containing 5% CO2. When cultures reached pre-confluence individual peptides of the combination and different combinations of the peptides as shown in Table VII were added to different flasks such that the final concentration of each peptide in the flask was 10^−8 M. The untreated flasks served as controls. The cells were incubated with drug for 6 hours.
After 6 hours of incubation cells were collected by trypsin treatment followed by centrifugation at 2000 r.p.m. for 10 minutes. The supernatant was gently removed and discarded and Lysis Buffer was added to the cell pellet (25 ul of lysis buffer per 1×10^4 cells I a 15 ml conical tube) and incubated on ice for 10 minutes and centrifuged at 10,000-×g for 1 minute. 50 ul of supernatant(cell lysate) was transferred to the wells of a 96-well plate. 2×Reaction buffer was prepared by adding 10 ul of fresh DTT stock per 1 ml of 2×Reaction Buffer. […] Following incubation the plate was read on a microplate reader at 405 nm-wavelength light the level of caspase enzymatic activity in the cell lysate was directly proportional to the color reaction. The induction of caspase activity by the subcombinations was calculated as a percentage of control using the formula [(Sample OD/Control OD)−1]*100.

[3] = system: tyrosine phosphatase in pancreatic cancer cells (MiaPaCa2); test: Tyrosine phosphatase induction, colorimetric; conditions: 30 minutes, final peptide concentration 10^-9 M
Method: The quantitation of tyrosine phosphatase was carried out colorimetrically by using their synthetic biotin labeled tyrosine phosphorylated peptide substrates. The enzyme reaction was quenched by the addition of a specific inhibitor, and the phosphorylated and dephosphorylated substrate is immobilized by binding to the streptavidin coated microtitre plate. The fraction of the unmetabolized substrate is determined by its anti phospho tyrosine antibody directly conjugated to peroxidase.
The cells were cultured in sterile 6 well plates at a density of 0.5×10^6/ well in DMEM supplemented with 10% FCS, and allowed to adhere overnight. The medium was changed to DMEM. The cells were treated with appropriate concentrations peptide and their combinations shown in Table VI, for 30 minutes, such that in each case the final peptide concentration was 10^−9M.
The cells were lysed in appropriate lysis buffer (50 mM Tris, containing 0.2 mM PMSF, 1 ug/ml pepstatin and 0.5 ug/ml leupeptin adjusted to pH 7.4). The cell extracts were transferred to microcentrifuge tubes and centrifuged for 5 minutes at 10000×g.
The quantitation of phosphatase enzyme activity was performed with 30 ul of specific substrates and the reaction was quenched with the addition of 100 uM sodium orthvanadate. […] After 3 washings, 100 ul of the substrate POD was added to the wells, and the absorbance was read at 405 nm.

[4] = system: VEGF secreted by human breast adenocarcinoma cells (MDA.MB.453); test: VEGF secretion ELISA; conditions: 4 hours, each peptide 10^-8 M
Method: Human breast adenocarcinoma cells (MDA.MB.453) were plated at the density of 8-10×10^5 cells per 2 ml in a six well plate. After an overnight incubation of cells at 37° C., individual peptides and different combinations of the peptides as shown in Table VIII were added to different wells such that the final concentration of each peptide was 10^−8 M. The untreated wells served as controls. The plates were incubated for 4 hours at 37° C. The medium was collected from all the wells (control and treated) and spun down at 2000 r.p.m to remove the cellular material. The supernatant was collected and used for ELISA (Quantikine human VEGF, R&D Systems). The assay employs the quantitative sandwich enzyme immunoassay technique. A monoclonal antibody specific for VEGF has been pre-coated onto a microplate. Standards and samples were pipeted into the wells and VEGF present was bound by the immobilized antibody. After washing away the unbound substances, an enzyme-linked polyclonal antibody specific for VEGF was added to the wells. Following a wash to remove any unbound antibody-enzyme reagent, a substrate solution was added to the wells and color developed in proportion to the amount of VEGF bound in the initial step. The optical density of each well was determined within 30 minutes using a microplate reader set to 450 nm and reference wavelength at 540 nm.

Row | SMILES | Camp (% of Control) [1] [%] | % INDUCTION of Caspase-3 [2] [%] | % Induction of Tyrosine phosphatase [3] [%] | % INHIBITION of VEGF secretion [4] [%]
1 | CSCC[C@H](NC(=O)[C@@H](N)CC(C)C)C(=O)N[C@@H](Cc1ccc(O)cc1)C(=O)N1CCC[C@H]1C(=O)N[C@H](C(=O)N[C@@H](Cc1ccc(O)cc1)C(=O)N[C@@H](CC(C)C)C(=O)N[C@@H](CCCCN)C(=O)O)[C@@H](C)O [SEQ ID NO:1, Leu-Met-Tyr-Pro-Thr-Tyr-Leu-Lys-OH] (H-LMYPTYLK-OH; N-terminus assumed) | 30 | – | – | –
2 | CCCC(=O)N[C@H](Cc1ccccc1)C(=O)N[C@@H](CCC(N)=O)C(=O)N[C@@H](Cc1c[nH]c2ccccc12)C(=O)N[C@@H](C)C(=O)N[C@H](C(=O)NC(C)(C)C(=O)N[C@@H](Cc1c[nH]cn1)C(=O)N[C@@H](CC(C)C)C(N)=O)C(C)C [SEQ ID NO:2, Butanoyl-D-Phe-Gln-Trp-Ala-Val-Aib-His-Leu-NH2] (Butyryl-[dF]QWAV[Aib]HL-NH2) | 18 | – | – | –
3 | CC(C)C[C@H](NC(=O)[C@@H](Cc1c[nH]c2ccccc12)NC(=O)[C@H](Cc1ccccc1)NC(=O)[C@@H](Cc1c[nH]c2ccccc12)NC(=O)[C@H](CCC(N)=O)NC(=O)[C@@H](Cc1ccccc1)NC(=O)[C@@H]1CCCN1C(=O)[C@H](CCCCN)NC(=O)[C@@H]1CCCN1C(=O)[C@H](N)CCCNC(=N)N)C(=O)NC1(C(N)=O)CCCC1 [SEQ ID NO:3, D-Arg-Pro-Lys-Pro-D-Phe-Gln-D-Trp-Phe-D-Trp-Leu-Ac5c-NH2] (H-[dR]PKP[dF]Q[dW]F[dW]L[Ac5c]-NH2; N-terminus assumed) | 14 | 19.5 | 12 | 17.5 ± 1.9
4 | C[C@@H](O)[C@H](NC(=O)[C@H]1NC(=O)C2(CCCC2)NC(=O)[C@H](CCCN)NC(=O)[C@@H](Cc2c[nH]c3ccccc23)NC(=O)[C@H](Cc2ccc(O)cc2)NC(=O)[C@@H](NC(=O)[C@H](N)Cc2ccccc2)CSSC1(C)C)C(N)=O [SEQ ID NO:4, D-Phe-Cys-Tyr-D-Trp-Om-Ac5c -Pen-Thr-NH2] | 15 | 12.4 | 10 | 12.4 ± 2.3
